US20240164373A1, “ANTIMICROBIAL PERFUMING CONSUMER PRODUCTS” (Firmenich SA, priority 2021, published 2024)
≈ marks a conversion by molar mass, not a printed value.

What was measured:
Assay type in all cases: cell-based
[1] = tested on: Staphylococcus aureus ATCC 6538; assay: MIC test in 96 well plates (broth dilution, turbidity); conditions: ATCC6538, average of three replicates, MH broth, sample in ethanol, 37° C. overnight, read-out: Minimal inhibitory concentration (ppm) Staphylococcus aureus ATCC 6538
[2] = tested on: Cutibacterium acnes DSM 1897; assay: MIC test in 96 well plates (broth dilution, turbidity), anaerobic strain; conditions: DSM1897, average of three replicates, WC broth, sample in DMSO, read-out: Minimal inhibitory concentration (ppm) Cutibacterium acnes DSM 1897
Escherichia coli DSM 787 = assay: MIC test in 96 well plates (broth dilution, turbidity); conditions: DSM787, average of three replicates, MH broth, sample in ethanol, 37° C. overnight, read-out: Minimal inhibitory concentration (ppm) Escherichia coli DSM 787
[3] = tested on: Corynebacterium tuberculostearicum C1; assay: as above; conditions: average of three replicates, BHI-TW80 broth, sample in DMSO, read-out: Minimal inhibitory concentration (ppm) Corynebacterium tuberculostearicum C1
Protocol: Bacterial suspension of the Corynebacterium tuberculostearicum C1 strain was prepared as follows: Stock culture (stored at −80° C.) was subcultured onto tryptic soy agar plates with 0.5% Tween 80 (TSA-TW80), and subsequently incubated at 37 °C for 48 h. The primary cultures were subcultured again onto TSA-TW80 to prepare the secondary cultures. One single colony of the secondary culture was then selected and used to inoculate 50 ml brain heart infusion broth with 0.5% Tween 80 (BHI-TW80). The inoculated broth was incubated at 37° C. and 180 rpm overnight. Aliquots (2 mL) of the overnight culture were inoculated into 50 ml of fresh BHI-TW80 broth media, and incubated at 37° C., 160 rpm. When the OD600 nm reached the target value of 4.0, cells were harvested by centrifugation at 5000 rpm for 10 min, and then resuspended in the fresh BHI-TW80 broth media at the same volume before the centrifugation. Aliquots (1 ml) of each cell suspension were diluted in 200 ml of fresh BHI-TW80 broth media as the bacterial solutions for the MIC test.
Sample solutions of test materials and reference material were prepared in ethanol for MIC test for E. coli and S. aureus strains or in DMSO for C. tuberculostearicum and C. acnes strains. In brief, stock solutions of 1% and 20% were prepared in each solvent, and then seven serial dilutions of each stock solution were prepared in each solvent to obtain a total of 16 solutions of the test material or the reference material. Aliquot (10 μl) of each solution was used for MIC test. The tested final concentrations of each material were 29, 44, 66, 99, 148, 222, 333, 500, 590, 900, 1300, 2000, 3000, 4500, 6700, 10000 ppm.
MIC test were performed in 96 well plates. […] Column 1 contained bacterial solution only (the positive growth control), and column 12 contained growth media only (the negative growth control). […]
Minimal inhibitory concentration (MIC) was determined as the lowest concentration where no growth was observed. Average MIC value of the three replicates was calculated against each strain.

[4] = tested on: Escherichia coli ATCC 25922; assay: as above; conditions: ATCC25922, average of three replicates, MH broth, sample in ethanol, 37° C. overnight, read-out: Minimal inhibitory concentration (ppm) Escherichia coli ATCC 25922

Structure (SMILES)	MIC [1] [µg/mL]	MIC [2] [µg/mL]	MIC (Escherichia coli DSM 787) [µg/mL]	MIC [3] [µg/mL]	MIC [4] [µg/mL]
CC(CCO)CCc1ccccc1 (stereo not drawn) [3-methyl-5-phenyl-1-pentanol]	185 (≈ 1040 µM)	259 (≈ 1450 µM)	360 (≈ 2020 µM)	200 (≈ 1120 µM)	
CC(O)CC(C)CCc1ccccc1 (stereo not drawn) [4-methyl-6-phenyl-2-hexanol]	173 (≈ 900 µM)	148 (≈ 770 µM)		1300 (≈ 6760 µM)	> 10000
CCC=C(C)C(O)C(C)CC (stereo not drawn) [3,5-dimethyl-5-octen-4-ol]	1530 (≈ 9810 µM)	1770 (≈ 11300 µM)		2670 (≈ 17100 µM)	3500 (≈ 22400 µM)
